Measurements published in patent US12577206B2 (BRISTOL-MYERS SQUIBB COMPANY, priority 2020, dated 2026).

Key:
human FPR2 = target: T1, human FPR2 (Homo sapiens, UniProt P25090); assay: FPR2 cyclic adenosine monophosphate (cAMP) assay; format: cell-based; settings: CHO cells overexpressing human FPR2; forskolin 5 μM; inhibition of cAMP production; HTRF; read-out: hFPR2 cAMP2 EC50
T1 sequence (P25090 1-351): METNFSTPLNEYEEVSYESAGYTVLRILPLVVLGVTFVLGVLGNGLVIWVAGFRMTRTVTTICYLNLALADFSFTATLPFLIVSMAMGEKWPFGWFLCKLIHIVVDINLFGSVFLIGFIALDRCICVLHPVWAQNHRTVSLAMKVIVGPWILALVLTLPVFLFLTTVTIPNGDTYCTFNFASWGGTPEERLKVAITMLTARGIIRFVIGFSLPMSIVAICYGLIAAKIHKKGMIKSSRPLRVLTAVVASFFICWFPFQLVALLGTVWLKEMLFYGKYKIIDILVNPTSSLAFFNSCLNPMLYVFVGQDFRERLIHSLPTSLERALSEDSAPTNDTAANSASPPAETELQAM
Outline: (§1)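 CHO cells overexpressing human FPR1 (4,000/well) or FPR2 (2,000/well) were incubated 30 min at room temperature with compound (0.020 nM to 100 μM, 1% DMSO), IBMX 200 μM, and forskolin at 10 μM (FPR1) or 5 μM (FPR2), all final. HTRF cAMP read-out; inhibition fitted by 4-parameter logistic equation.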

human FPR1 = target: T2, human FPR1 (Homo sapiens, UniProt P21462); assay: FPR1 cyclic adenosine monophosphate (cAMP) assay; format: cell-based; settings: CHO cells overexpressing human FPR1; forskolin 10 μM; inhibition of cAMP production; HTRF; read-out: hFPR1 cAMP2 EC50
T2 sequence (P21462 1-350): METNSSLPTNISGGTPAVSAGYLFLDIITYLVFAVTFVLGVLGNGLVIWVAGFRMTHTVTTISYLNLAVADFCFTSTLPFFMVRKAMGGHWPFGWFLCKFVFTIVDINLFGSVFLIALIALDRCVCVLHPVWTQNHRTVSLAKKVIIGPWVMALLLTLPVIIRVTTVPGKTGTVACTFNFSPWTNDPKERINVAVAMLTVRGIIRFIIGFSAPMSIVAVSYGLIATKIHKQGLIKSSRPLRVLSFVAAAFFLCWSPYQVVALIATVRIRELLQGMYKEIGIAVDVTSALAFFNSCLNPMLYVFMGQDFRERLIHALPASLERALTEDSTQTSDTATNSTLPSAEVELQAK
Outline: as §1

Structure (SMILES)	EC50 (human FPR2)	EC50 (human FPR1)
COc1cc(F)c(-c2c(NC(=O)c3ccc(OC(F)F)cc3)c(=O)n(-c3cccc(CO)n3)n2C)c(F)c1 [Example 81, N-[5-(2,6-difluoro-4-methoxyphenyl)-2-[6-(hydroxymethyl)pyridin-2-yl]-1-methyl-3-oxo-2,3-dihydro-1H-pyrazol-4-yl]-4-(difluoromethoxy)benzamide]	17 nM	> 10000 nM
COc1cc(F)c(-c2c(NC(=O)c3ccc(OC(F)F)cc3)c(=O)n(-c3cc(F)ccc3C)n2C)c(F)c1 [Example 14, N-[5-(2,6-difluoro-4-methoxyphenyl)-2-(5-fluoro-2-methylphenyl)-1-methyl-3-oxo-2,3-dihydro-1H-pyrazol-4-yl]-4-(difluoromethoxy)benzamide]	23 nM	> 10000 nM
COc1cc(F)c(-c2c(NC(=O)c3ccc(OC(F)F)cc3)c(=O)n(-c3ccc(C#N)cn3)n2C)c(F)c1 [Example 54, N-[2-(5-cyanopyridin-2-yl)-5-(2,6-difluoro-4-methoxyphenyl)-1-methyl-3-oxo-2,3-dihydro-1H-pyrazol-4-yl]-4-(difluoromethoxy)benzamide]	19 nM	3300 nM
COc1cc(F)c(-c2c(NC(=O)c3ccc(OC(F)F)cc3)c(=O)n(-c3cc(Cl)ccn3)n2C)c(F)c1 [Example 152, N-[2-(4-chloropyridin-2-yl)-5-(2,6-difluoro-4-methoxyphenyl)-1-methyl-3-oxo-2,3-dihydro-1H-pyrazol-4-yl]-4-(difluoromethoxy)benzamide]	10 nM	> 10000 nM
COc1cc(F)c(-c2c(NC(=O)c3ccc(OC(F)F)cc3)c(=O)n(-c3nc(Cl)ccc3F)n2C)c(F)c1 [Example 146, N-[2-(6-chloro-3-fluoropyridin-2-yl)-5-(2,6-difluoro-4-methoxyphenyl)-1-methyl-3-oxo-2,3-dihydro-1H-pyrazol-4-yl]-4-(difluoromethoxy)benzamide]	6 nM	> 10000 nM
COc1cc(F)c(-c2c(NC(=O)c3ccc(OC(F)(F)F)cc3)c(=O)n(-c3ccc(C4CC4)cn3)n2C)c(F)c1 [Example 52, N-[2-(5-cyclopropylpyridin-2-yl)-5-(2,6-difluoro-4-methoxyphenyl)-1-methyl-3-oxo-2,3-dihydro-1H-pyrazol-4-yl]-4-(trifluoromethoxy)benzamide]	9 nM	190 nM
COc1cc(F)c(-c2c(NC(=O)c3ccc(OC(F)F)cc3)c(=O)n(-c3cccc(F)c3C#N)n2C)c(F)c1 [Example 178, N-[2-(2-cyano-3-fluorophenyl)-5-(2,6-difluoro-4-methoxyphenyl)-1-methyl-3-oxo-2,3-dihydro-1H-pyrazol-4-yl]-4-(difluoromethoxy)benzamide]	6 nM	> 10000 nM
COc1cc(F)c(-c2c(NC(=O)c3ccc(OC(F)F)cc3)c(=O)n(-c3nc(N4CC(OC(C)C)C4)ccc3C(F)(F)F)n2C)c(F)c1 [Example 140, N-[5-(2,6-difluoro-4-methoxyphenyl)-1-methyl-3-oxo-2-{6-[3-(propan-2-yloxy)azetidin-1-yl]-3-(trifluoromethyl)pyridin-2-yl}-2,3-dihydro-1H-pyrazol-4-yl]-4-(difluoromethoxy)benzamide]	4 nM	1500 nM

Results, then the compound that gave them:

EC50 (human FPR2)	EC50 (human FPR1)	Structure (SMILES)
22 nM	94 nM	COc1cc(F)c(-c2c(NC(=O)c3ccc(OC(F)F)cc3)c(=O)n(-c3cc(OCC4(C)COC4)cc(C(F)(F)F)n3)n2C)c(F)c1 [Example 349, N-(5-(2,6-Difluoro-4-methoxyphenyl)-1-methyl-2-(4-((3-methyloxetan-3-yl)methoxy)-6-(trifluoromethyl)pyridin-2-yl)-3-oxo-2,3-dihydro-1H-pyrazol-4-yl)-4-(difluoromethoxy)benzamide]
4 nM	2890 nM	COc1cc(F)c(-c2c(NC(=O)c3ccc(OC(F)F)cc3)c(=O)n(-c3nc(C(C)(C)O)ccc3Cl)n2C)c(F)c1 [Example 276, N-{2-[3-chloro-6-(2-hydroxypropan-2-yl)pyridin-2-yl]-5-(2,6-difluoro-4-methoxyphenyl)-1-methyl-3-oxo-2,3-dihydro-1H-pyrazol-4-yl}-4-(difluoromethoxy)benzamide]
6 nM	> 10000 nM	COc1cc(F)c(-c2c(NC(=O)c3ccc(OC(F)F)cc3)c(=O)n(-c3nc(N[C@H](C)C4CC4)ccc3C(F)(F)F)n2C)c(F)c1 [Example 243, N-[2-(6-{[(1R)-1-cyclopropylethyl]amino}-3-(trifluoromethyl)pyridin-2-yl)-5-(2,6-difluoro-4-methoxyphenyl)-1-methyl-3-oxo-2,3-dihydro-1H-pyrazol-4-yl]-4-(difluoromethoxy)benzamide]
44 nM	> 5000 nM	COc1cc(F)c(-c2c(NC(=O)c3ccc(OC(F)F)cc3)c(=O)n(-c3cccc(N4CCN(CCS(C)(=O)=O)CC4)n3)n2C)c(F)c1 [Example 206, N-[5-(2,6-difluoro-4-methoxyphenyl)-2-{6-[4-(2-methanesulfonylethyl)piperazin-1-yl]pyridin-2-yl}-1-methyl-3-oxo-2,3-dihydro-1H-pyrazol-4-yl]-4-(difluoromethoxy)benzamide]
1 nM	> 10000 nM	COc1cc(F)c(-c2c(NC(=O)c3ccc(OC(F)F)cc3)c(=O)n(-c3nc(NCC4(CO)CCC4)ccc3C(F)(F)F)n2C)c(F)c1 [Example 290, N-[5-(2,6-difluoro-4-methoxyphenyl)-2-[6-({[1-(hydroxymethyl)cyclobutyl]-methyl}amino)-3-(trifluoromethyl)pyridin-2-yl]-1-methyl-3-oxo-2,3-dihydro-1H-pyrazol-4-yl]-4-(difluoromethoxy)benzamide]
12 nM	> 10000 nM	COc1cc(F)c(-c2c(NC(=O)c3ccc(OC(F)F)cc3)c(=O)n(-c3nc(NCC(=O)N(C)C)ccc3C(F)(F)F)n2C)c(F)c1 [Example 252, N-[5-(2,6-difluoro-4-methoxyphenyl)-2-(6-{[(dimethylcarbamoyl)methyl]-amino}-3-(trifluoromethyl)pyridin-2-yl)-1-methyl-3-oxo-2,3-dihydro-1H-pyrazol-4-yl]-4-(difluoromethoxy)benzamide]
23 nM	> 10000 nM	Cn1c(-c2c(F)cc(Cl)cc2F)c(NC(=O)c2ccc(OC(F)F)cc2)c(=O)n1-c1cccc(C(C)(C)O)n1 [Example 407]
5 nM	> 10000 nM	COc1cc(F)c(-c2c(NC(=O)c3ccc(OC(F)F)cc3)c(=O)n(-c3nc(C(C)(C)F)ccc3C#N)n2C)c(F)c1 [Example 194, N-{2-[3-cyano-6-(2-fluoropropan-2-yl)pyridin-2-yl]-5-(2,6-difluoro-4-methoxyphenyl)-1-methyl-3-oxo-2,3-dihydro-1H-pyrazol-4-yl}-4-(difluoromethoxy)benzamide]
2 nM	> 10000 nM	COc1cc(F)c(-c2c(NC(=O)c3ccc(OC(F)F)cc3)c(=O)n(-c3nc(NCC(C)(C)C(N)=O)ccc3C(F)(F)F)n2C)c(F)c1 [Example 279, N-(2-{6-[(2-carbamoyl-2,2-dimethylethyl)amino]-3-(trifluoromethyl)pyridin-2-yl}-5-(2,6-difluoro-4-methoxyphenyl)-1-methyl-3-oxo-2,3-dihydro-1H-pyrazol-4-yl)-4-(difluoromethoxy)benzamide]
2 nM	2400 nM	COc1cc(OCC2(C)COC2)nc(-n2c(=O)c(NC(=O)c3ccc(OC(F)F)cc3)c(-c3c(F)cc(OC)cc3F)n2C)c1 [Example 344, N-(5-(2,6-Difluoro-4-methoxyphenyl)-2-(4-methoxy-6-((3-methyloxetan-3-yl)methoxy)pyridin-2-yl)-1-methyl-3-oxo-2,3-dihydro-1H-pyrazol-4-yl)-4-(difluoromethoxy)benzamide]
15 nM	> 5000 nM	COc1cc(F)c(-c2c(NC(=O)c3ccc(OC(F)F)cc3)c(=O)n(-c3nccc(N4CCN(C)CC4)c3C(F)(F)F)n2C)c(F)c1 [Example 224, N-[5-(2,6-difluoro-4-methoxyphenyl)-1-methyl-2-[4-(4-methylpiperazin-1-yl)-3-(trifluoromethyl)pyridin-2-yl]-3-oxo-2,3-dihydro-1H-pyrazol-4-yl]-4-(difluoromethoxy)benzamide]
8 nM	1700 nM	COc1ccc(-c2c(NC(=O)c3ccc(OC(F)F)cc3)c(=O)n(-c3ncccc3C(F)(F)F)n2C)c(F)c1 [Example 263, 4-(difluoromethoxy)-N-[5-(2-fluoro-4-methoxyphenyl)-1-methyl-3-oxo-2-[3-(trifluoromethyl)pyridin-2-yl]-2,3-dihydro-1H-pyrazol-4-yl]benzamide]
